Laboratory results reported in patent US4914204A, “4-Pentafluorophenoxypiperidines” (priority 1988, dated 1990).
Where a name gives a salt, the structure may show the parent alone. Read-outs that look alike come from different tables or passages of the source.

What was measured:
[1] = test system: spontaneous hypertensive rat; assay: antihypertensive activity, indirect tail cuff method; type: in vivo; settings: 50 mg/kg p.o.; measured on third day
Description: The compounds of this invention are also useful as antihypertensive agents due to their ability to depress blood pressure in mammals. Antihypertensive activity is measured in the spontaneous hypertensive rat by the indirect tail cuff method described in "Methods in Pharmacology", A. Schwartz, Ed., Vol. I, Appleton-Century Crofts, New York, N.Y., 1971, p. 135. In this procedure a group of five animals is treated orally for three days with the test compound in relation to a control group of the same number. The drop in blood pressure is measured on the third day following administration. The antihypertensive activities of representative compounds, expressed as a decrease in mean arterial blood pressure (in mm Hg), are given in Table 3 along with the activity of a standard compound.

mice [2] = assay: phenyl-p-benzoquinone writhing assay (analgesic activity); type: in vivo, mice (male, Charles River, CD-1); settings: for % Inhibition of writhing: screening dose of 20 mg/kg, s.c.; for ED50: Mus musculus, sc, footnote 1 of Table 1, read-out: Analgesic Activity, ED50 (calculated dose effecting 50% inhibition of writhing)
Description: The procedure employed to determine analgetic utility is a modification of the phenyl-p-benzoquinone writhing assay in mice, a standard assay for analgesia [Proc. Soc. […] Pursuant to the modified procedure phenyl-p-benzoquinone (Eastman, 12.5 mg) is dissolved in 5 ml of 95% ethanol and the solution is diluted to a total volume of 100 ml with distilled water. The solution is administered to the subject mice intraperitoneally at a dose of 10 ml per kg of body weight. A characteristic "writhe" an inward rotation of one or more feet with twisting and turning of the trunk, drawing in of the abdominal wall, lordosis and arching of the back, is produced.
A total of 28 male mice (Charles River, CD-1), weighing 18 to 30 grams, are employed for a time response. The subject animals receive food and water ad libitum. Test compounds are dissolved in distilled water, or suspended in distilled water containing one drop of a suitable surfactant, such as Tween-80.
Four groups of five animals (20 animals) are given the test compound subcutaneously (s.c.) or orally (p.o.) at 15, 30, 45 and 60 minutes prior to administration of the phenyl-p-quinone. A control group (2 animals per group) receive an equal volume of the vehicle. After the administration of the phenyl-p-quinone, the mice are placed separately in one liter beakers, and after five minutes, are observed for ten minutes. The number of writhes for each animal is recorded. The following formula is used to compute the percent inhibition: [formula]
The time period with the greatest percent of inhibition is considered the peak time.

mice [3] = assay: metrazol lethality assay (MTZ), anticonvulsant activity; type: in vivo, mice (male, Charles River, CD-1)
rats = assay: L-5-hydroxytryptophan (5-HTP) potentiation assay (antidepressant activity); type: in vivo, male Wistar rats
Description: Antidepressant activity is determined by the L-5-hydroxytryptophan potentiation assay in rats described in Brit.
In the L-5-hydroxytryptophan potentiation assay groups of six male Wistar rats (150-200 grams each) are used. Pargyline hydrochloride is prepared and administered four hours before testing by subcutaneous injection at 75 mg/kg in 1% saline and a dosage volume of 1.0 ml/kg. Thirty minutes before testing, drugs are prepared and dosed using distilled water and, if insoluble, a suitable surfactant is added. Control groups receive vehicle. Drugs are routinely administered intraperitoneally at a dosage volume of 10 ml/kg. L-5-hydroxytryptophan (5-HTP) is prepared at 1.0 mg/kg in distilled water and is administered intraperioneally in volumes proportional to 10 ml/kg.
Potentiation is expressed as normalized percent potentiation relative to vehicle control. ED50 values (the calculated dose at which the test compound effects a 50% inhibition of continuous forelimb clonus) and 95% confidence limits are determined by linear analysis.

mice [4] = assay: tetrabenazine (TBZ) induced ptosis assay (antidepressant activity); type: in vivo, mice (male, Charles River, CD-1)
Description: In the tetrabenazine induced ptosis assay, male mice (Charles River, CD-1), weighing 20 to 39 g, are used in test groups of five animals. Test compounds are dissolved, or suspended with 1 drop of Tween-80, in distilled water and administered to the animals in volumes of 10 cc per kg of body weight. Tetrabenazine methanesulfonate (76.78% as the free base) is dissolved in distilled water and the concentration of the solution is adjusted so that the dose, administered intraperitoneally (i.p.) to the animals, is 40 mg of tetrabenazine base per kg of animal body weight.
The test compound is administered intraperitoneally (i.p.) or perorally (p.o.) to the subject animals, and the tetrabenazine solution is administered 30 minutes or 60 minutes, respectively, thereafter. Tetrabenazine solution and the solvent used to dissolve or suspend the test compounds are administered by the same route and at the same intervals as the test compounds to a control group.
The subject animals are placed in individual plastic containers (101/2"×8"×6") thirty (i.p.) and sixty minutes (p.o.) after administration of the tetrabenazine solution, and one minute thereafter, the animals are scored for ptosis on the following scale:
The total score for each group of 5 animals will therefore vary from 0 to 20; these scores are used as the indications of the activity of the test compound.
The vehicle-control group score is used as a determination of the validity of each test.
For calculation of the ED50 value of a test compound; i.e., the calculated dose at which the test compound effects a 50% inhibition of tetrabenazine-induced ptosis, four or five doses are administered, and only vehicle-control scores of 17 to 20 are acceptable. A linear-regression analysis is used to estimate ED50 values and 95% confidence limits.

[5] = Rattus norvegicus, ip; read-out: 5-HTP ED50
[6] = Mus musculus, ip, read-out: TBZ ED50
[7] = Rattus norvegicus, ip, read-out: 5-HTP ED50
[8] = Mus musculus, ip; read-out: TBZ ED50

SMILES | % Inhibition of writhing (mice [2]) [%] | ED50 (rats; [5]) [mg/kg] | ED50 (mice [4]; [8]) [mg/kg] | further results
Fc1c(F)c(F)c(OC2(c3ccccc3)CCN(Cc3ccccc3)CC2)c(F)c1F [1-Benzyl-4-(2,3,4,5,6-pentafluorophenoxy)-4-phenyl piperidine] | – | – | – | SHR mm dec. in blood pressure (decrease in mean arterial blood pressure) [1]: 40 mm Hg
N#CN1CCC(Oc2c(F)c(F)c(F)c(F)c2F)(c2ccccc2)CC1 [1-Cyano-4-(2,3,4,5,6-pentafluorophenoxy)-4-phenyl piperidine] | 52 | – | – | ED50 (mice [3]; Mus musculus, po): 55.2 mg/kg
Cl.Fc1ccc2c(CCCN3CCC(Oc4c(F)c(F)c(F)c(F)c4F)CC3)noc2c1 [1-[(6-Fluoro-1,2-benzisoxazol-3-yl)propyl]-4-(2,3,4,5,6-pentafluorophenoxy)piperidine hydrochloride] | – | – | – | SHR mm dec. in blood pressure (decrease in mean arterial blood pressure) [1]: 62 mm Hg
CP(C)(=O)CN1CCC(Oc2c(F)c(F)c(F)c(F)c2F)CC1 [1-[(Dimethylphosphinyl)methyl]-4-(2,3,4,5,6-pentafluorophenoxy)piperdine] | – | 9.1 | – | –
CN1CCC(Oc2c(F)c(F)c(F)c(F)c2F)(c2ccccc2)CC1.Cl [1-methyl-4-(2,3,4,5,6-pentafluorophenoxy)-4-phenylpiperidine hydrochloride] | – | – | – | ED50 (mice [4]; [6]): 1.3 mg/kg; ED50 (rats; [7]): 8.1 mg/kg
CN1CCC(Oc2c(F)c(F)c(F)c(F)c2F)CC1 [1-methyl-4-(2,3,4,5,6-pentafluorophenoxy)piperidine] | – | 4.7 | 4.7 | –
COc1ccccc1N1CCN(CCCCN2CCC(Oc3c(F)c(F)c(F)c(F)c3F)CC2)CC1 [1-{4-[1-[4-(2-Methoxyphenyl)piperazin-1-yl]butyl]}-4-(2,3,4,5,6-pentafluorophenoxy)piperidine dioxalate] | – | – | – | ED50 (mice [2]): 19 mg/kg
Fc1c(F)c(F)c(OC2(c3ccccc3)CCNCC2)c(F)c1F.O=C(O)/C=C\C(=O)O [4-(2,3,4,5,6-Pentafluorophenoxy)-4-phenylpiperidine maleate] | – | 14.5 | 1 | –
Cl.Fc1c(F)c(F)c(OC2CCNCC2)c(F)c1F [4-(2,3,4,5,6-Pentafluorophenoxy)piperidine hydrochloride] | – | – | – | ED50 (mice [2]): 20 mg/kg
CN1CCC(Oc2c(F)c(F)c(F)c(F)c2F)(c2ccccc2F)CC1.O=C(O)C(=O)O [4-(2-Fluorophenyl)-1-methyl-4-(2,3,4,5,6-pentafluorophenoxy) piperidine oxalate] | – | – | – | ED50 (mice [4]; [6]): 3.8 mg/kg
Fc1ccccc1C1(Oc2c(F)c(F)c(F)c(F)c2F)CCNCC1.O=C(O)/C=C\C(=O)O [4-(2-Fluorophenyl)-4-(2,3,4,5,6-pentafluorophenoxy)piperidine maleate] | – | < 20 | 6.4 | –
CN1CCC(Oc2c(F)c(F)c(F)c(F)c2F)(c2ccc(Cl)cc2)CC1.O=C(O)/C=C/C(=O)O [4-(4-Chlorophenyl)-1-methyl-4-(2,3,4,5,6-pentafluorophenoxy)p iperidine fumarate] | – | – | – | ED50 (mice [4]; [6]): 38.9 mg/kg; ED50 (rats; [7]): 11.9 mg/kg
Fc1c(F)c(F)c(OC2(c3ccc(Cl)cc3)CCNCC2)c(F)c1F.O=C(O)/C=C/C(=O)O [4-(4-Chlorophenyl)-4-(2,3,4,5,6-pentafluorophenoxy)piperidine fumarate] | 66 | 37 | 20 | –
CN1CCC(Oc2c(F)c(F)c(F)c(F)c2F)(c2ccc(F)cc2)CC1.Cl [4-(4-Fluorophenyl)-1-methyl-4-(2,3,4,5,6-pentafluorophenoxy)p iperidine hydrochloride] | 49 | – | – | ED50 (mice [4]; [6]): 5.4 mg/kg; ED50 (rats; [7]): 7 mg/kg; Percent inhibition of Metrazol lethality (mice [3]; 30 mg/kg i.p., footnote 2 of Table 2): 80%
Cl.Fc1ccc(C2(Oc3c(F)c(F)c(F)c(F)c3F)CCNCC2)cc1 [4-(4-Fluorophenyl)-4-(2,3,4,5,6-pentafluorophenoxy)piperidine hydrochloride] | 58 | < 10 | 4.8 | –
COc1ccc(C2(Oc3c(F)c(F)c(F)c(F)c3F)CCN(C)CC2)cc1.Cl [4-(4-Methoxyphenyl)-1-methyl-4-(2,3,4,5,6-pentafluorophenoxy) piperidine hydrochloride] | 53 | – | – | –
Cc1ccc(C2(Oc3c(F)c(F)c(F)c(F)c3F)CCNCC2)cc1.O=C(O)/C=C\C(=O)O [4-(4-Methylphenyl)-4-(2,3,4,5,6-pentafluorophenoxy)piperidine maleate] | 56 | 14.5 | 8.3 | –
Cc1ccc(C2(Oc3c(F)c(F)c(F)c(F)c3F)CCN(C)CC2)cc1 [(4-(4-Methylphenyl)-1-methyl-4-(2,3,4,5,6-pentafluorophenoxy)piperidine hydrochloride] | – | – | – | ED50 (mice [4]; [6]): 7 mg/kg
CN(C)CCC=C1c2ccccc2CCc2ccccc21 [amitriptyline, reference compound] | – | 7.1 | 1.5 | –
N=C(N)NCCN1CCCCCCC1 [guanethidine, reference compound] | – | – | – | SHR mm dec. in blood pressure (decrease in mean arterial blood pressure) [1]: 20 mm Hg
